Measurements: ChEMBL document CHEMBL4507267 (2021)

How the values were obtained:
[1] = biological target: Sodium-dependent serotonin transporter (Homo sapiens) (UniProt P31645); conditions: Compound concentration 10.0 uM
[2] = system: Receptor-type tyrosine-protein kinase FLT3 (Homo sapiens), P36888 [N841I]; conditions: Compound concentration 1000.0 nM
[3] = biological target: Serine/threonine-protein kinase MRCK gamma (Homo sapiens) (UniProt Q6DT37); conditions: Compound concentration 1000.0 nM
[4] = biological target: Mitogen-activated protein kinase kinase kinase 13 (Homo sapiens) (UniProt O43283); conditions: Compound concentration 1000.0 nM
[5] = biological target: Ribosomal protein S6 kinase alpha-4 (Homo sapiens) (UniProt O75676); conditions: Compound concentration 1000.0 nM
[6] = biological target: Homeodomain-interacting protein kinase 4 (Homo sapiens) (UniProt Q8NE63); conditions: Compound concentration 1000.0 nM
[7] = biological target: Mitogen-activated protein kinase 10 (Homo sapiens) (UniProt P53779); conditions: Compound concentration 1000.0 nM
[8] = biological target: Muscarinic acetylcholine receptor M1 (Homo sapiens) (UniProt P11229); conditions: Compound concentration 10.0 uM
[9] = system: Epidermal growth factor receptor (Homo sapiens), P00533 [L858R]; conditions: Compound concentration 1000.0 nM
[10] = biological target: Ephrin type-B receptor 4 (Homo sapiens) (UniProt P54760); conditions: Compound concentration 1000.0 nM
[11] = biological target: Eukaryotic translation initiation factor 2-alpha kinase 1 (Homo sapiens) (UniProt Q9BQI3); conditions: Compound concentration 1000.0 nM
[12] = biological target: Ephrin type-A receptor 3 (Homo sapiens) (UniProt P29320); conditions: Compound concentration 1000.0 nM
[13] = biological target: Serine/threonine-protein kinase Nek2 (Homo sapiens) (UniProt P51955); conditions: Compound concentration 1000.0 nM
[14] = system: Phosphatidylinositol 4,5-bisphosphate 3-kinase catalytic subunit alpha isoform (Homo sapiens), P42336 [Q546K]; conditions: Compound concentration 1000.0 nM
[15] = biological target: Tyrosine-protein kinase TXK (Homo sapiens) (UniProt P42681); conditions: Compound concentration 1000.0 nM
[16] = biological target: Receptor-type tyrosine-protein kinase FLT3 (Homo sapiens) (UniProt P36888); conditions: Compound concentration 1000.0 nM
[17] = biological target: Activin receptor type-2A (Homo sapiens) (UniProt P27037); conditions: Compound concentration 1000.0 nM
[18] = biological target: Tyrosine-protein kinase BTK (Homo sapiens) (UniProt Q06187); conditions: Compound concentration 1000.0 nM
[19] = biological target: Mitogen-activated protein kinase kinase kinase kinase 1 (Homo sapiens) (UniProt Q92918); conditions: Compound concentration 1000.0 nM
[20] = system: Phosphatidylinositol 4,5-bisphosphate 3-kinase catalytic subunit alpha isoform (Homo sapiens), P42336 [C420R]; conditions: Compound concentration 1000.0 nM
[21] = system: Receptor-type tyrosine-protein kinase FLT3 (Homo sapiens), P36888 [D835V]; conditions: Compound concentration 1000.0 nM
[22] = biological target: Casein kinase II subunit alpha (Homo sapiens) (UniProt P68400); conditions: Compound concentration 1000.0 nM
[23] = biological target: Protein kinase C iota type (Homo sapiens) (UniProt P41743); conditions: Compound concentration 1000.0 nM
[24] = biological target: Serine/threonine-protein kinase DCLK2 (Homo sapiens) (UniProt Q8N568); conditions: Compound concentration 1000.0 nM
[25] = biological target: Calcium/calmodulin-dependent protein kinase kinase 2 (Homo sapiens) (UniProt Q96RR4); conditions: Compound concentration 1000.0 nM
[26] = biological target: Cytoplasmic tyrosine-protein kinase BMX (Homo sapiens) (UniProt P51813); conditions: Compound concentration 1000.0 nM
[27] = biological target: Dual specificity protein kinase CLK1 (Homo sapiens) (UniProt P49759); conditions: Compound concentration 1000.0 nM
[28] = biological target: Tyrosine-protein kinase JAK1 (Homo sapiens) (UniProt P23458); conditions: Compound concentration 1000.0 nM
[29] = biological target: Cyclin-dependent kinase-like 2 (Homo sapiens) (UniProt Q92772); conditions: Compound concentration 1000.0 nM
[30] = biological target: Mitogen-activated protein kinase kinase kinase 19 (Homo sapiens) (UniProt Q56UN5); conditions: Compound concentration 1000.0 nM
[31] = system: Epidermal growth factor receptor (Homo sapiens), P00533 [L858R,T790M]; conditions: Compound concentration 1000.0 nM
[32] = biological target: Serine/threonine-protein kinase PRP4 homolog (Homo sapiens) (UniProt Q13523); conditions: Compound concentration 1000.0 nM
[33] = biological target: Serine/threonine-protein kinase 32C (Homo sapiens) (UniProt Q86UX6); conditions: Compound concentration 1000.0 nM
[34] = biological target: Serine/threonine-protein kinase SBK1 (Homo sapiens) (UniProt Q52WX2); conditions: Compound concentration 1000.0 nM
[35] = biological target: Mitogen-activated protein kinase kinase kinase 5 (Homo sapiens) (UniProt Q99683); conditions: Compound concentration 1000.0 nM
[36] = biological target: Serine/threonine-protein kinase 24 (Homo sapiens) (UniProt Q9Y6E0); conditions: Compound concentration 1000.0 nM
[37] = system: Mast/stem cell growth factor receptor Kit (Homo sapiens), P10721 [D816V]; conditions: Compound concentration 1000.0 nM
[38] = biological target: Tyrosine-protein kinase Fes/Fps (Homo sapiens) (UniProt P07332); conditions: Compound concentration 1000.0 nM
[39] = biological target: Receptor tyrosine-protein kinase erbB-4 (Homo sapiens) (UniProt Q15303); conditions: Compound concentration 1000.0 nM
[40] = biological target: Serine/threonine-protein kinase MARK1 (Homo sapiens) (UniProt Q9P0L2); conditions: Compound concentration 1000.0 nM
[41] = biological target: Beta-adrenergic receptor kinase 1 (Homo sapiens) (UniProt P25098); conditions: Compound concentration 1000.0 nM
[42] = system: Receptor-type tyrosine-protein kinase FLT3 (Homo sapiens), P36888 [R834Q]; conditions: Compound concentration 1000.0 nM
[43] = system: Epidermal growth factor receptor (Homo sapiens), P00533 [G719S]; conditions: Compound concentration 1000.0 nM
[44] = system: Receptor-type tyrosine-protein kinase FLT3 (Homo sapiens), P36888 [D835H]; conditions: Compound concentration 1000.0 nM
[45] = biological target: Atypical kinase COQ8B, mitochondrial (Homo sapiens) (UniProt Q96D53); conditions: Compound concentration 1000.0 nM

Sequence of Tyrosine-protein kinase BTK (Homo sapiens) (Q06187 whole entry): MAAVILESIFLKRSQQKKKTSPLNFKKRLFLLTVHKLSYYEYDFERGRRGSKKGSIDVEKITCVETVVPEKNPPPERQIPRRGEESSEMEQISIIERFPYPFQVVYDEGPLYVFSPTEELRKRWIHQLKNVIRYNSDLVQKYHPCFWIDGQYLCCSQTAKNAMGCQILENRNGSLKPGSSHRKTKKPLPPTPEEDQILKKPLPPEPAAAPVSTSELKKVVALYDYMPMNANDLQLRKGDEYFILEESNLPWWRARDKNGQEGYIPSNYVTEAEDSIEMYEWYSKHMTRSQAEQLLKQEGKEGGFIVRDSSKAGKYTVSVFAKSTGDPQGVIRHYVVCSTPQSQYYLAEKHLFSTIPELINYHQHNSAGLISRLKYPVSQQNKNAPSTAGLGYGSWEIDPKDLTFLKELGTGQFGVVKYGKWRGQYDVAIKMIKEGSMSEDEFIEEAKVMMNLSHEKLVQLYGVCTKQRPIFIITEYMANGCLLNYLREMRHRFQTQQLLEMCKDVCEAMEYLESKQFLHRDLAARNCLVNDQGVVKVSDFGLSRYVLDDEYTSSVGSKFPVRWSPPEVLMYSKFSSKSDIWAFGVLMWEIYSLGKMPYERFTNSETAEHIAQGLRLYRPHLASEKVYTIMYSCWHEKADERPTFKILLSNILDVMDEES
Sequence of Cyclin-dependent kinase-like 2 (Homo sapiens) (Q92772 whole entry): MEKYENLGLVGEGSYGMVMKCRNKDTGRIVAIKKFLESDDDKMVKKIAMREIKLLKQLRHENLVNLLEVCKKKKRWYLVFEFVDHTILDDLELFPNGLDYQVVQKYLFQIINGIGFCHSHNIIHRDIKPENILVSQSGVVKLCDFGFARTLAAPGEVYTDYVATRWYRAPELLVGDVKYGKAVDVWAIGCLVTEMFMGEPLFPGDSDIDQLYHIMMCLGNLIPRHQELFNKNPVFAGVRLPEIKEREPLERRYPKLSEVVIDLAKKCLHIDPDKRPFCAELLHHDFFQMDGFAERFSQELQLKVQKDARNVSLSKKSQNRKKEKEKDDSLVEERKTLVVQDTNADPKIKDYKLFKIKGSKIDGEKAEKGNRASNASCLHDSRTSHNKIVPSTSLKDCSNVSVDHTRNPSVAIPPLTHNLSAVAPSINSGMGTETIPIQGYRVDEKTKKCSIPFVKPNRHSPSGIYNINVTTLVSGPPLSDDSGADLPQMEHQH
Sequence of Mast/stem cell growth factor receptor Kit (Homo sapiens), P10721 [D816V] (P10721 whole entry D816V): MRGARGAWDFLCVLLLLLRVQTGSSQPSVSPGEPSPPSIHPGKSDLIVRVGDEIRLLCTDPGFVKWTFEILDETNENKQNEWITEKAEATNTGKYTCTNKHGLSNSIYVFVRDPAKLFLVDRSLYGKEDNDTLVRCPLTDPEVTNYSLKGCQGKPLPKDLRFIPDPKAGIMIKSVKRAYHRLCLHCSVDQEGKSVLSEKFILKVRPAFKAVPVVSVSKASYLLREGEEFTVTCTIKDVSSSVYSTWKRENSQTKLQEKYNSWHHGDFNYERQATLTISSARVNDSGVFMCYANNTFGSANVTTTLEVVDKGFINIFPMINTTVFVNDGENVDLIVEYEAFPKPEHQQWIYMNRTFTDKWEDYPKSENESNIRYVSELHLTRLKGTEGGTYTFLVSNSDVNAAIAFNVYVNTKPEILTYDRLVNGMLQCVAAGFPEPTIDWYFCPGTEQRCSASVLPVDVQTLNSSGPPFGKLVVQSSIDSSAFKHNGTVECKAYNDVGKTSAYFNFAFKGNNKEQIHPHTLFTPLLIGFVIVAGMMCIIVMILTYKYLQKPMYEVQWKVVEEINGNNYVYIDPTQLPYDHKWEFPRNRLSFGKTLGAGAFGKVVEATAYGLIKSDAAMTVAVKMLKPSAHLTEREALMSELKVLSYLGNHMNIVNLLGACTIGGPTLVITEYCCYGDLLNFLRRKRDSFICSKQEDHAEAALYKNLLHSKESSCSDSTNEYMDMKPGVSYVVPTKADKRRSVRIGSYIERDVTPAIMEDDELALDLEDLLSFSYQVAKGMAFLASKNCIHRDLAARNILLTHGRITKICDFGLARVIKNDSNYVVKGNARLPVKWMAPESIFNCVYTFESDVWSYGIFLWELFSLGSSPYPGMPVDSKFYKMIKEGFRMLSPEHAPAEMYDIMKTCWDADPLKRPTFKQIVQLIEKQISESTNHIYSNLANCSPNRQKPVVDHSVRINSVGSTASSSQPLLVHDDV
Sequence of Serine/threonine-protein kinase 24 (Homo sapiens) (Q9Y6E0 whole entry, looked up): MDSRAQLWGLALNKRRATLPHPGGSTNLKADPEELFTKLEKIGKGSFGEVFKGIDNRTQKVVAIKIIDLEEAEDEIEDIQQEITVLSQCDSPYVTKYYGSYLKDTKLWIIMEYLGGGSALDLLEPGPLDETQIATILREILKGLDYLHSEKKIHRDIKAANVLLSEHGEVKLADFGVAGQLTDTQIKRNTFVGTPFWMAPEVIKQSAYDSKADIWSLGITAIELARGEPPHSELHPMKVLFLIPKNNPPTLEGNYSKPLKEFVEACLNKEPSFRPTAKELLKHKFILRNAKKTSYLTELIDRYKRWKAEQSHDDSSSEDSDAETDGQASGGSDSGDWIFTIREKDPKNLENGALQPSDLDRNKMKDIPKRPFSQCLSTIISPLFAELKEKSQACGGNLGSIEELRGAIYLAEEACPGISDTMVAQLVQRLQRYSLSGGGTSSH
Sequence of Serine/threonine-protein kinase 32C (Homo sapiens) (Q86UX6 whole entry): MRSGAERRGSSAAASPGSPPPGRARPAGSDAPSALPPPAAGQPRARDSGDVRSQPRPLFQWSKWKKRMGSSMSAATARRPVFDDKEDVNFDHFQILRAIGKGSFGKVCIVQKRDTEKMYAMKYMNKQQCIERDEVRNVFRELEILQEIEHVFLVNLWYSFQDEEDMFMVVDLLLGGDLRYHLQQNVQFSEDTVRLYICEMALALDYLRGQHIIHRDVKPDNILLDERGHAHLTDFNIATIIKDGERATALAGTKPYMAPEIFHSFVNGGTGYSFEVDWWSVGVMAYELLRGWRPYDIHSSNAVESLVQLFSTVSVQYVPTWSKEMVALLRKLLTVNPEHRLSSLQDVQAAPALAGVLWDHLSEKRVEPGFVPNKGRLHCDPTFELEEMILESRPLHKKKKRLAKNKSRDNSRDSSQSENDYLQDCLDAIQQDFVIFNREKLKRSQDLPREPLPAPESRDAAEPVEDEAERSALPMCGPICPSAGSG
Sequence of Protein kinase C iota type (Homo sapiens) (P41743 whole entry): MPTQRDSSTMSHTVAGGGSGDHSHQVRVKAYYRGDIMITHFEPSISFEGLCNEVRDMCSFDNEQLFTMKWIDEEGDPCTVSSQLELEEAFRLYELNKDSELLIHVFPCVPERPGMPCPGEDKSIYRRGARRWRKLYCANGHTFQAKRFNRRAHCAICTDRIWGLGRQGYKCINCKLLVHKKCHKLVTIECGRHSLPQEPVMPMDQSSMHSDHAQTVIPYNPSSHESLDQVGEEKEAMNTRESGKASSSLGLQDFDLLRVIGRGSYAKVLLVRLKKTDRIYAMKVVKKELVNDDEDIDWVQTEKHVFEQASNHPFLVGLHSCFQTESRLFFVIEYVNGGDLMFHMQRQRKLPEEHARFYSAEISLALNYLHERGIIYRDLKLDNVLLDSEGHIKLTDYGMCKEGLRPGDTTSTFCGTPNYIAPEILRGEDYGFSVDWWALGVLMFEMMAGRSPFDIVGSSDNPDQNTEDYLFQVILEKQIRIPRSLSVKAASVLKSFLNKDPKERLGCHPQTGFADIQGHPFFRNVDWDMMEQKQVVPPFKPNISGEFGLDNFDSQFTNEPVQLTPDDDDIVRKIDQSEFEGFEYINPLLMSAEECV
Sequence of Muscarinic acetylcholine receptor M1 (Homo sapiens) (P11229 whole entry): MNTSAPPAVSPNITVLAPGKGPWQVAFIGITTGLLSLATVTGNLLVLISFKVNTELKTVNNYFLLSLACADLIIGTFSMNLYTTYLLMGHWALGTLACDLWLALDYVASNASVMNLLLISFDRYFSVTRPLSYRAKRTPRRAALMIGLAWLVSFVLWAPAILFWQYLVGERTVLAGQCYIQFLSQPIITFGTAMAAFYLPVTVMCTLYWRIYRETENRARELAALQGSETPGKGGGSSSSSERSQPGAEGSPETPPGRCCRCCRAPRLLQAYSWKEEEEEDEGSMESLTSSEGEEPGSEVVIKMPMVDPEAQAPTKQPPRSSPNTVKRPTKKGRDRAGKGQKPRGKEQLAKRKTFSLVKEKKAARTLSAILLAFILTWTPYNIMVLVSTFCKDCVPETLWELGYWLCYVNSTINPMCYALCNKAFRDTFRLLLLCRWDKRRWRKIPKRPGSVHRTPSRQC
Sequence of Casein kinase II subunit alpha (Homo sapiens) (P68400 whole entry, looked up): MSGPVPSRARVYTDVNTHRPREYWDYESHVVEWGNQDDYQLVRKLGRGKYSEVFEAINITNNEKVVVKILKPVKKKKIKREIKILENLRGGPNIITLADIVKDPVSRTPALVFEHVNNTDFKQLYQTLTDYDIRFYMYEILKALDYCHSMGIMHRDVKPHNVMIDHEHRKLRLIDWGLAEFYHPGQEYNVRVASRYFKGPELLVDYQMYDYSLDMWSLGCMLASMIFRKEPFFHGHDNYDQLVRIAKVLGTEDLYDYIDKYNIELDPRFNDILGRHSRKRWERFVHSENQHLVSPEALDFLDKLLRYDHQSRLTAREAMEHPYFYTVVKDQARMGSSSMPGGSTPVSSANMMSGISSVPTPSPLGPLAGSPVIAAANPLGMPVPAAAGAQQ
Sequence of Serine/threonine-protein kinase SBK1 (Homo sapiens) (Q52WX2 whole entry): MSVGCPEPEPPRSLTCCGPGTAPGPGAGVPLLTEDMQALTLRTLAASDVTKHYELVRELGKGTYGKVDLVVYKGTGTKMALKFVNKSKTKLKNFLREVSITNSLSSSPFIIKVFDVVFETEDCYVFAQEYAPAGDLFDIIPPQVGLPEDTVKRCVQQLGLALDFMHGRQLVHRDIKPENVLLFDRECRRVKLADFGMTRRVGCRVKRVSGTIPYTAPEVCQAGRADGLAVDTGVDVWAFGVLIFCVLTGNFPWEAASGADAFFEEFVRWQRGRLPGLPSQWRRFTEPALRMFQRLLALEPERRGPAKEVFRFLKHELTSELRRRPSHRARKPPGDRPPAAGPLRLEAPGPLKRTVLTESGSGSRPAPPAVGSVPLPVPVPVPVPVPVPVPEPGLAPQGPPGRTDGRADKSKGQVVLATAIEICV

In the case of `Cc1c(NC(=O)c2cc(C(N)=O)nc3cc(F)ccc23)c(C(F)(F)F)nn1Cc1ccc(C(C)(C)C)cc1` [BAY-588], the inhibition [1] is reported as -3.13%, the residual activity [2] is reported as 52% and the residual activity [3] is reported as 91%. It also gave a residual activity [4] of 100%, a residual activity [5] of 92% and a residual activity [6] of 88%. For the same molecule, the residual activity [7] was 100%, the inhibition [8] was 37.2% and the residual activity [9] was 100%. For the same molecule, the residual activity [10] was 100%, the residual activity [11] was 100% and the residual activity [12] was 98%. For the same molecule, the residual activity [13] was 100%, the residual activity [14] was 32% and the residual activity [15] was 100%. For the same molecule, the residual activity [16] was 100%, the residual activity [17] was 100% and the residual activity [18] was 100%. The residual activity [19] was 100%, the residual activity [20] was 100% and the residual activity [21] was 100%. The residual activity [22] was 100%, the residual activity [23] was 98% and the residual activity [24] was 83%. It also gave a residual activity [25] of 78%, a residual activity [26] of 88% and a residual activity [27] of 62%. The residual activity [28] was 100%, the residual activity [29] was 100% and the residual activity [30] was 85%. For the same molecule, the residual activity [31] was 100%, the residual activity [32] was 73% and the residual activity [33] was 100%. It also gave a residual activity [34] of 100%, a residual activity [35] of 100% and a residual activity [36] of 100%. The residual activity [37] was 82%, the residual activity [38] was 100% and the residual activity [39] was 98%. For the same molecule, the residual activity [40] was 100%, the residual activity [41] was 100% and the residual activity [42] was 100%. For the same molecule, the residual activity [43] was 78%, the residual activity [44] was 79% and the residual activity [45] was 70%.

`Cc1c(NC(=O)c2cc(C(N)=O)nc3cc(F)ccc23)c(C(F)(F)F)nn1Cc1ccc(C#N)cc1` [BAY-876] gave an inhibition [1] of 0.483%, a residual activity [2] of 53% and a residual activity [3] of 91%. For the same molecule, the residual activity [4] was 84%, the residual activity [5] was 100% and the residual activity [6] was 100%. For the same molecule, the residual activity [7] was 85%, the inhibition [8] was 28.2% and the residual activity [9] was 97%. It also gave a residual activity [10] of 100%, a residual activity [11] of 100% and a residual activity [12] of 90%. The residual activity [13] was 100%, the residual activity [14] was 85% and the residual activity [15] was 99%. For the same molecule, the residual activity [16] was 99%, the residual activity [17] was 97% and the residual activity [18] was 70%. It also gave a residual activity [19] of 100%, a residual activity [20] of 70% and a residual activity [21] of 100%. For the same molecule, the residual activity [22] was 78%, the residual activity [23] was 84% and the residual activity [24] was 82%. The residual activity [25] was 92%, the residual activity [26] was 85% and the residual activity [27] was 86%. The residual activity [28] was 100%, the residual activity [29] was 92% and the residual activity [30] was 72%. For the same molecule, the residual activity [31] was 93%, the residual activity [32] was 93% and the residual activity [33] was 69%. It also gave a residual activity [34] of 75%, a residual activity [35] of 91% and a residual activity [36] of 78%. For the same molecule, the residual activity [37] was 88%, the residual activity [38] was 83% and the residual activity [39] was 95%. It also gave a residual activity [40] of 100%, a residual activity [41] of 87% and a residual activity [42] of 83%. For the same molecule, the residual activity [43] was 86%, the residual activity [44] was 100% and the residual activity [45] was 80%.
